Results taken from patent US20070010671A1, “Novel quinazoline derivatives and methods of treatment related to the use thereof” (priority 2003, published 2007).

What follows are compounds tested against MCH receptor (Homo sapiens, UniProt Q99705) (assay: High throughput functional screening FLIPR/FDSS6000: inhibition of MCH-evoked intracellular Ca2+ changes). Settings: class by percent of control at 10^-7 M or IC50.
Type: cell-based
In short: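 Antagonism was measured as inhibition of calcium responses to 50 nM MCH, monitored 290 s at ex 488/em 530 nm on FLIPR or FDSS6000. Beforehand, cells bearing a constitutively active MCH receptor received Fluo4-AM (4 μM, 1 h, 37 °C) with probenecid, and test compound for 3 min.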
In the case of “N-(2,5-dimethylphenyl)-N′-[(cis-4-{[4-(dimethylamino)quinazolin-2-yl]amino}cyclohexyl)methyl]urea [compound 480]”, the class is reported as 2 (Class 2: The value of percent of control at 10^−7 M was from 40% to 60% or the value of IC50 was from 50 nM to 200 nM.).

Same assay, conditions: class by percent of control at 10^-7 M or by IC50; read-out: class
For COc1ccc(NC(=O)N[C@H]2CC[C@@H](Nc3nc(N(C)C)c4ccccc4n3)CC2)c(C)c1 [compound 827, N-(cis-4-{[4-(dimethylamino)quinazolin-2-yl]amino}cyclohexyl)-N′-(4-methoxy-2-methylphenyl)urea], the IC50 was under 50 nM. Work on COc1ccc(NC(=O)N[C@H]2CC[C@@H](Nc3nc(N(C)C)c4ccccc4n3)CC2)c([N+](=O)[O-])c1 [compound 828] yielded an IC50 of over 200 nM. Cc1ccc(NC(=O)N[C@H]2CC[C@@H](Nc3nc(N(C)C)c4ccccc4n3)CC2)cc1[N+](=O)[O-] [compound 829] was tested, and the IC50 was over 200 nM. For Cc1ccc(CNC(=O)N[C@H]2CC[C@@H](Nc3nc(N(C)C)c4ccccc4n3)CC2)cc1 [compound 830, N-(cis-4-{[4-(dimethylamino)quinazolin-2-yl]amino}cyclohexyl)-N′-(4-methylbenzyl)urea], the IC50 was 50 to 200 nM. CCCCOc1ccc(NC(=O)N[C@H]2CC[C@@H](Nc3nc(N(C)C)c4ccccc4n3)CC2)cc1 [compound 831] was tested, and the IC50 was over 200 nM. In the case of CCCCc1ccc(NC(=O)N[C@H]2CC[C@@H](Nc3nc(N(C)C)c4ccccc4n3)CC2)cc1 [compound 832], the IC50 is reported as over 200 nM. For CN(C)c1nc(N[C@H]2CC[C@@H](NC(=O)Nc3ccc(-c4ccccc4)cc3)CC2)nc2ccccc12 [compound 833], the IC50 was over 200 nM. Work on COc1cc(OC)c(NC(=O)N[C@H]2CC[C@@H](Nc3nc(N(C)C)c4ccccc4n3)CC2)cc1Cl [compound 834, N-(5-chloro-2,4-dimethoxyphenyl)-N′-(cis-4-{[4-(dimethylamino)quinazolin-2-yl]amino}cyclohexyl)urea] yielded an IC50 of under 50 nM. With COc1ccc(Cl)cc1NC(=O)N[C@H]1CC[C@@H](Nc2nc(N(C)C)c3ccccc3n2)CC1 [compound 835] the IC50 was over 200 nM. In the case of Cc1ccc(Cl)cc1NC(=O)N[C@H]1CC[C@@H](Nc2nc(N(C)C)c3ccccc3n2)CC1 [compound 836], the IC50 is reported as over 200 nM. CN(C)c1nc(N[C@H]2CC[C@@H](NC(=O)Nc3cc(Cl)ccc3[N+](=O)[O-])CC2)nc2ccccc12 [compound 837] showed an IC50 of over 200 nM. Work on Cc1ccc(F)cc1NC(=O)N[C@H]1CC[C@@H](Nc2nc(N(C)C)c3ccccc3n2)CC1 [compound 838, N-(cis-4-{[4-(dimethylamino)quinazolin-2-yl]amino}cyclohexyl)-N′-(5-fluoro-2-methylphenyl)urea] yielded an IC50 of 50 to 200 nM. With CN(C)c1nc(N[C@H]2CC[C@@H](NC(=O)Nc3ccc4c(c3)CCC4)CC2)nc2ccccc12 [compound 839] the IC50 was over 200 nM. Compound CN(C)c1nc(N[C@H]2CC[C@@H](NC(=O)NC3c4ccccc4-c4ccccc43)CC2)nc2ccccc12 [compound 840, N-(cis-4-{[4-(dimethylamino)quinazolin-2-yl]amino}cyclohexyl)-N′-9H-fluoren-9-ylurea] has an IC50 of over 200 nM. In the case of CN(C)c1nc(N[C@H]2CC[C@@H](NC(=O)NC3c4ccccc4-c4ccccc43)CC2)nc2ccccc12 [compound 841, N-(cis-4-{[4-(dimethylamino)quinazolin-2-yl]amino}cyclonexyl)-N′-9H-fluoren-9-ylurea], the IC50 is reported as 50 to 200 nM. With CN(C)c1nc(N[C@H]2CC[C@@H](NC(=O)NCCc3ccccc3)CC2)nc2ccccc12 [compound 842, N-(cis-4-{[4-(dimethylamino)quinazolin-2-yl]amino}cyclonexyl)-N′-(2-phenylethyl)urea] the IC50 was 50 to 200 nM. CN(C)c1nc(N[C@H]2CC[C@@H](NC(=O)NC3CCCC3)CC2)nc2ccccc12 [compound 843, N-cyclophenyl-N′-(cis-4-{[4-(dimethylamino)quinazolin-2-yl]amino}cyclohexyl)urea] was tested, and the IC50 was 50 to 200 nM. CN(C)c1nc(N[C@H]2CC[C@@H](NC(=O)NC(c3ccccc3)c3ccccc3)CC2)nc2ccccc12 [compound 844, N-(cis-4-{[4-(dimethylamino)quinazolin-2-yl]amino}cyclohexyl)-N′-(diphenylmethyl)urea] showed an IC50 of under 50 nM. COC(=O)c1ccc(NC(=O)N[C@H]2CC[C@@H](Nc3nc(N(C)C)c4ccccc4n3)CC2)cc1 [compound 845] showed an IC50 of over 200 nM. CN(C)c1nc(N[C@H]2CC[C@@H](NC(=O)OCCOCc3ccccc3)CC2)nc2ccccc12 [compound 846] gave an IC50 of 50 to 200 nM. CN(C)c1nc(N[C@H]2CC[C@@H](NC(=O)OCC(C)(C)C)CC2)nc2ccccc12 [compound 847] gave an IC50 of over 200 nM. Compound COc1cc(COC(=O)N[C@H]2CC[C@@H](Nc3nc(N(C)C)c4ccccc4n3)CC2)c([N+](=O)[O-])cc1OC [compound 848] has an IC50 of under 50 nM. CN(C)c1nc(N[C@H]2CC[C@@H](NC(=O)Oc3cccc(C(F)(F)F)c3)CC2)nc2ccccc12 [compound 849] was tested, and the IC50 was over 200 nM. CN(C)c1nc(N[C@H]2CC[C@@H](NC(=O)Oc3ccc(Br)cc3)CC2)nc2ccccc12 [compound 850] gave an IC50 of over 200 nM. COc1ccccc1OC(=O)N[C@H]1CC[C@@H](Nc2nc(N(C)C)c3ccccc3n2)CC1 [compound 851] gave an IC50 of over 200 nM. Work on COCCOC(=O)N[C@H]1CC[C@@H](Nc2nc(N(C)C)c3ccccc3n2)CC1 [compound 852] yielded an IC50 of over 200 nM. CCCCCCCCOC(=O)N[C@H]1CC[C@@H](Nc2nc(N(C)C)c3ccccc3n2)CC1 [compound 853] was tested, and the IC50 was over 200 nM. CCOC(=O)N[C@H]1CC[C@@H](Nc2nc(N(C)C)c3ccccc3n2)CC1 [compound 854] was tested, and the IC50 was over 200 nM. Compound CN(C)c1nc(N[C@H]2CC[C@@H](NC(=O)OCc3ccc([N+](=O)[O-])cc3)CC2)nc2ccccc12 [compound 855] has an IC50 of under 50 nM. CN(C)c1nc(N[C@H]2CC[C@@H](NC(=O)Oc3ccc4ccccc4c3)CC2)nc2ccccc12 [compound 856] gave an IC50 of over 200 nM. With C=CCOC(=O)N[C@H]1CC[C@@H](Nc2nc(N(C)C)c3ccccc3n2)CC1 [compound 857] the IC50 was over 200 nM. CN(C)c1nc(N[C@H]2CC[C@@H](NC(=O)OCc3ccccc3)CC2)nc2ccccc12 [compound 858] was tested, and the IC50 was 50 to 200 nM. CN(C)c1nc(N[C@H]2CC[C@@H](NC(=O)Oc3ccccc3)CC2)nc2ccccc12 [compound 859] gave an IC50 of over 200 nM. In the case of CC(C)[C@@H]1CC[C@@H](C)C[C@H]1OC(=O)N[C@H]1CC[C@@H](Nc2nc(N(C)C)c3ccccc3n2)CC1 [compound 860], the IC50 is reported as over 200 nM. For Cc1ccc(OC(=O)N[C@H]2CC[C@@H](Nc3nc(N(C)C)c4ccccc4n3)CC2)cc1 [compound 861], the IC50 was over 200 nM. With COC(=O)N[C@H]1CC[C@@H](Nc2nc(N(C)C)c3ccccc3n2)CC1 [compound 862] the IC50 was over 200 nM. Compound CN(C)c1nc(N[C@H]2CC[C@@H](NC(=O)OCc3ccccc3Cl)CC2)nc2ccccc12 [compound 863] has an IC50 of 50 to 200 nM. Work on CN(C)c1nc(N[C@H]2CC[C@@H](NC(=O)OCC3c4ccccc4-c4ccccc43)CC2)nc2ccccc12 [compound 864] yielded an IC50 of over 200 nM. Compound CN(C)c1nc(N[C@H]2CC[C@@H](NC(=O)OCC(Cl)(Cl)Cl)CC2)nc2ccccc12 [compound 865] has an IC50 of over 200 nM. In the case of CN(C)c1nc(N[C@H]2CC[C@@H](CNC(=O)OCCOCc3ccccc3)CC2)nc2ccccc12 [compound 866], the IC50 is reported as over 200 nM. CN(C)c1nc(N[C@H]2CC[C@@H](CNC(=O)OCC(C)(C)C)CC2)nc2ccccc12 [compound 867] gave an IC50 of over 200 nM. For COc1cc(COC(=O)NC[C@H]2CC[C@@H](Nc3nc(N(C)C)c4ccccc4n3)CC2)c([N+](=O)[O-])cc1OC [compound 868], the IC50 was over 200 nM. For CN(C)c1nc(N[C@H]2CC[C@@H](CNC(=O)Oc3cccc(C(F)(F)F)c3)CC2)nc2ccccc12 [compound 869], the IC50 was over 200 nM. With CN(C)c1nc(N[C@H]2CC[C@@H](CNC(=O)Oc3ccc(Br)cc3)CC2)nc2ccccc12 [compound 870] the IC50 was over 200 nM. In the case of COc1ccccc1OC(=O)NC[C@H]1CC[C@@H](Nc2nc(N(C)C)c3ccccc3n2)CC1 [compound 871], the IC50 is reported as over 200 nM. For COCCOC(=O)NC[C@H]1CC[C@@H](Nc2nc(N(C)C)c3ccccc3n2)CC1 [compound 872], the IC50 was over 200 nM. Work on CCCCCCCCOC(=O)NC[C@H]1CC[C@@H](Nc2nc(N(C)C)c3ccccc3n2)CC1 [compound 873] yielded an IC50 of over 200 nM. CCOC(=O)NC[C@H]1CC[C@@H](Nc2nc(N(C)C)c3ccccc3n2)CC1 [compound 874] was tested, and the IC50 was over 200 nM. With CN(C)c1nc(N[C@H]2CC[C@@H](CNC(=O)OCc3ccc([N+](=O)[O-])cc3)CC2)nc2ccccc12 [compound 875] the IC50 was 50 to 200 nM. In the case of CN(C)c1nc(N[C@H]2CC[C@@H](CNC(=O)Oc3ccc4ccccc4c3)CC2)nc2ccccc12 [compound 876], the IC50 is reported as over 200 nM. For C=CCOC(=O)NC[C@H]1CC[C@@H](Nc2nc(N(C)C)c3ccccc3n2)CC1 [compound 877], the IC50 was over 200 nM. CN(C)c1nc(N[C@H]2CC[C@@H](CNC(=O)OCc3ccccc3)CC2)nc2ccccc12 [compound 878] showed an IC50 of 50 to 200 nM. With CN(C)c1nc(N[C@H]2CC[C@@H](CNC(=O)Oc3ccccc3)CC2)nc2ccccc12 [compound 879] the IC50 was over 200 nM. Compound CC1CCC(C(C)C)C(OC(=O)NCC2CCC(Nc3nc(N(C)C)c4ccccc4n3)CC2)C1 (stereo not drawn) [compound 880] has an IC50 of over 200 nM. With Cc1ccc(OC(=O)NC[C@H]2CC[C@@H](Nc3nc(N(C)C)c4ccccc4n3)CC2)cc1 [compound 881] the IC50 was over 200 nM. Compound COC(=O)NC[C@H]1CC[C@@H](Nc2nc(N(C)C)c3ccccc3n2)CC1 [compound 882] has an IC50 of over 200 nM. Compound CN(C)c1nc(N[C@H]2CC[C@@H](CNC(=O)OCc3ccccc3Cl)CC2)nc2ccccc12 [compound 883] has an IC50 of 50 to 200 nM. With CN(C)c1nc(N[C@H]2CC[C@@H](CNC(=O)OCC3c4ccccc4-c4ccccc43)CC2)nc2ccccc12 [compound 884] the IC50 was over 200 nM. Work on CN(C)c1nc(N[C@H]2CC[C@@H](CNC(=O)OCC(Cl)(Cl)Cl)CC2)nc2ccccc12 [compound 885] yielded an IC50 of over 200 nM.
